Experimental data from PubChem BioAssay AID330 (DTP/NCI, 2004).
Where “and” joins values, the source holds several entries; their conditions need not be identical. Equal values may be shown once. Toxic doses and inconclusive results are not listed. Rule for the calls: active = survival T/C of 150% or more; inactive = T/C below 125% in these data.

Tested on: P388 leukemia ip, CD2F1 mice, survival T/C
Test: NCI In Vivo Anticancer Drug Screen. Data for tumor model P388 Leukemia (intraperitoneal) in CD2F1 (CDF1) mice
Conditions: endpoint: median survival time, higher = longer survival
Procedure, shortened: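 Mice carrying the transplanted tumor received test compound or vehicle. Survival was recorded in each group, and the value is the treated-group measurement divided by that of the vehicle-treated control group.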

[1] = dose: 60.0 mg/kg/injection, schedule: Q01DX005 (ip), vehicle: saline with Tween-80
[2] = dose: 120.0 mg/kg/injection, schedule: Q01DX005 (ip), vehicle: saline with Tween-80
[3] = dose: 240.0 mg/kg/injection, schedule: Q01DX005 (ip), vehicle: saline with Tween-80

Measured: T/C

c1csc(-c2cc(-c3cc(-c4cccs4)[nH]n3)n[nH]2)c1
inactive: dose: 60.0 mg/kg/injection, schedule: Q01DX005 (ip), vehicle: Klucel (hydroxypropylcellulose) (HPC) 102 % of control | dose: 120.0 mg/kg/injection, schedule: Q01DX005 (ip), vehicle: Klucel (hydroxypropylcellulose) (HPC) 96 % of control | dose: 240.0 mg/kg/injection, schedule: Q01DX005 (ip), vehicle: Klucel (hydroxypropylcellulose) (HPC) 90 % of control

COC(=O)C[N+](=O)[O-]
inactive: dose: 50.0 mg/kg/injection, schedule: Q01DX009 (ip), vehicle: saline 103 % of control | dose: 100.0 mg/kg/injection, schedule: Q01DX009 (ip), vehicle: saline 99 % of control | dose: 200.0 mg/kg/injection, schedule: Q01DX009 (ip), vehicle: saline 110 % of control

FC(F)(F)c1ssc1C(F)(F)F
inactive: dose: 100.0 mg/kg/injection, schedule: Q01DX001 (ip), vehicle: other 99 % of control | dose: 200.0 mg/kg/injection, schedule: Q01DX001 (ip), vehicle: other 104 % of control

CC(C)CC(=O)CC1(C)CCC(c2ccoc2)O1 (stereo not drawn)
inactive: dose: 25.0 mg/kg/injection, schedule: Q01DX009 (ip), vehicle: saline with Tween-80 102 % of control | dose: 50.0 mg/kg/injection, schedule: Q01DX009 (ip), vehicle: saline with Tween-80 101 % of control | dose: 100.0 mg/kg/injection, schedule: Q01DX009 (ip), vehicle: saline with Tween-80 107 % of control

O=C(CCN1C(=O)CC1c1ccco1)N1CCOCC1 (stereo not drawn)
inactive: [1] 103 % of control | [2] 103 % of control | [3] 97 % of control

Cc1c(CCNC=O)ccc2c1[nH]c1ccccc12
inactive: dose: 50.0 mg/kg/injection, schedule: Q01DX005 (ip), vehicle: Klucel (hydroxypropylcellulose) (HPC) 95 % of control | dose: 100.0 mg/kg/injection, schedule: Q01DX005 (ip), vehicle: Klucel (hydroxypropylcellulose) (HPC) 96 % of control | dose: 200.0 mg/kg/injection, schedule: Q01DX005 (ip), vehicle: Klucel (hydroxypropylcellulose) (HPC) 100 % of control

CCN(CC)CC(C)(O)CNc1cc(OC)cc2cccnc12 (stereo not drawn)
inactive: dose: 12.5 mg/kg/injection, schedule: Q01DX005 (ip), vehicle: saline 97 % of control | dose: 25.0 mg/kg/injection, schedule: Q01DX005 (ip), vehicle: saline 101 % of control | dose: 50.0 mg/kg/injection, schedule: Q01DX005 (ip), vehicle: saline 93 % of control and 94 % of control

Cc1ccc2c(N(CCCl)CCCl)cc(-c3ccccc3)nc2n1
inactive: dose: 50.0 mg/kg/injection, schedule: Q04DX003 (ip), vehicle: Klucel (hydroxypropylcellulose) (HPC) 98 % of control | dose: 100.0 mg/kg/injection, schedule: Q04DX003 (ip), vehicle: Klucel (hydroxypropylcellulose) (HPC) 100 % of control | dose: 200.0 mg/kg/injection, schedule: Q04DX003 (ip), vehicle: Klucel (hydroxypropylcellulose) (HPC) 99 % of control

CC(C)(C)OC(=O)NC1CCC2CCCCC2C1 (stereo not drawn)
inactive: dose: 100.0 mg/kg/injection, schedule: Q04DX003 (ip), vehicle: saline 100 % of control | dose: 200.0 mg/kg/injection, schedule: Q04DX003 (ip), vehicle: saline 104 % of control | dose: 400.0 mg/kg/injection, schedule: Q04DX003 (ip), vehicle: saline 100 % of control

O=c1c(CN(CCO)CCO)c(-c2ccccc2)sc2ccccc12
inactive: dose: 12.5 mg/kg/injection, schedule: Q04DX002 (ip), vehicle: saline with Tween-80 100 % of control | dose: 25.0 mg/kg/injection, schedule: Q04DX002 (ip), vehicle: saline with Tween-80 100 % of control | dose: 50.0 mg/kg/injection, schedule: Q04DX002 (ip), vehicle: saline with Tween-80 97 % of control | dose: 100.0 mg/kg/injection, schedule: Q04DX002 (ip), vehicle: saline with Tween-80 91 % of control

CC(=O)Nc1ccc(S(=O)(=O)N/N=C/c2cc([N+](=O)[O-])cc([N+](=O)[O-])c2O)cc1
inactive: [1] 106 % of control | [2] 104 % of control | [3] 104 % of control
